Experimental data reported in PubChem BioAssay AID1259407 (Chemical Carcinogenesis Research Information System (CCRIS), 2018).
Active and inactive are the calls of the source. How the calls were made is not given here.

System: CCRIS mutagenicity, Ames/micronucleus/aberration tests
Experiment: CCRIS mutagenicity studies
[1] = Test System: AMES SALMONELLA TYPHIMURIUM, Strain/Indicator: TA98, Metabolic Activation: NONE, Method: STANDARD PLATE
[2] = Test System: AMES SALMONELLA TYPHIMURIUM, Strain/Indicator: TA98, Metabolic Activation: S-9, Method: STANDARD PLATE
[3] = Test System: AMES SALMONELLA TYPHIMURIUM, Strain/Indicator: TA100, Metabolic Activation: NONE, Method: STANDARD PLATE
[4] = Test System: AMES SALMONELLA TYPHIMURIUM, Strain/Indicator: TA100, Metabolic Activation: S-9, Method: STANDARD PLATE
[5] = Test System: AMES SALMONELLA TYPHIMURIUM, Strain/Indicator: TA102, Metabolic Activation: NONE, Method: STANDARD PLATE
[6] = Test System: AMES SALMONELLA TYPHIMURIUM, Strain/Indicator: TA1535, Metabolic Activation: NONE, Method: STANDARD PLATE
[7] = Test System: AMES SALMONELLA TYPHIMURIUM, Strain/Indicator: TA100, Metabolic Activation: NONE, Method: PREINCUBATION
[8] = Test System: AMES SALMONELLA TYPHIMURIUM, Strain/Indicator: TA98, Metabolic Activation: RAT, LIVER, S-9, AROCLOR 1254, Method: STANDARD PLATE
[9] = Test System: AMES SALMONELLA TYPHIMURIUM, Strain/Indicator: TA100, Metabolic Activation: RAT, LIVER, S-9, PHENOBARBITAL AND BETA-NAPHTHOFLAVONE, Method: PREINCUBATION
[10] = Test System: AMES SALMONELLA TYPHIMURIUM, Strain/Indicator: TA100, Metabolic Activation: RAT, LIVER, S-9, AROCLOR 1254, Method: STANDARD PLATE
[11] = Test System: AMES SALMONELLA TYPHIMURIUM, Strain/Indicator: TA98, Metabolic Activation: NONE, Method: PREINCUBATION
[12] = Test System: AMES SALMONELLA TYPHIMURIUM, Strain/Indicator: TA1538, Metabolic Activation: RAT, LIVER, S-9, AROCLOR 1254, Method: STANDARD PLATE

CCSCCSP(=O)(OC)OC
mutagenic call (Test System: AMES SALMONELLA TYPHIMURIUM, Strain/Indicator: TA97A, Metabolic Activation: NONE, Method: STANDARD PLATE): inactive; negative
mutagenic call (Test System: AMES SALMONELLA TYPHIMURIUM, Strain/Indicator: TA97A, Metabolic Activation: PLANT, HOMOGENATE, S-14, Method: STANDARD PLATE): inactive; negative
mutagenic call (Test System: AMES SALMONELLA TYPHIMURIUM, Strain/Indicator: TA97A, Metabolic Activation: S-9, Method: STANDARD PLATE): inactive; negative
mutagenic call [1]: inactive; negative
mutagenic call (Test System: AMES SALMONELLA TYPHIMURIUM, Strain/Indicator: TA98, Metabolic Activation: PLANT, HOMOGENATE, S-14, Method: STANDARD PLATE): inactive; negative
mutagenic call (Test System: AMES SALMONELLA TYPHIMURIUM, Strain/Indicator: TA98, Metabolic Activation: RAT, LIVER, S-9, Method: STANDARD PLATE): inactive; negative
mutagenic call [2]: inactive; negative
mutagenic call (Test System: AMES SALMONELLA TYPHIMURIUM, Strain/Indicator: TA98, Metabolic Activation: WHEAT SEEDLING, S-14, Method: STANDARD PLATE): inactive; negative
mutagenic call [3]: inactive; negative
mutagenic call (Test System: AMES SALMONELLA TYPHIMURIUM, Strain/Indicator: TA100, Metabolic Activation: PLANT, HOMOGENATE, S-14, Method: STANDARD PLATE): inactive; negative
mutagenic call [4]: inactive; negative
mutagenic call [5]: inactive; negative
mutagenic call (Test System: AMES SALMONELLA TYPHIMURIUM, Strain/Indicator: TA102, Metabolic Activation: RAT, LIVER, S-9, Method: STANDARD PLATE): inactive; negative
mutagenic call (Test System: AMES SALMONELLA TYPHIMURIUM, Strain/Indicator: TA102, Metabolic Activation: WHEAT SEEDLING, S-14, Method: STANDARD PLATE): inactive; negative
mutagenic call [6]: inactive; negative
mutagenic call (Test System: AMES SALMONELLA TYPHIMURIUM, Strain/Indicator: TA1535, Metabolic Activation: PLANT, HOMOGENATE, S-14, Method: STANDARD PLATE): inactive; negative
mutagenic call (Test System: AMES SALMONELLA TYPHIMURIUM, Strain/Indicator: TA1535, Metabolic Activation: RAT, LIVER, S-9, Method: STANDARD PLATE): inactive; negative
mutagenic call (Test System: AMES SALMONELLA TYPHIMURIUM, Strain/Indicator: TA1535, Metabolic Activation: S-9, Method: STANDARD PLATE): inactive; negative
mutagenic call (Test System: AMES SALMONELLA TYPHIMURIUM, Strain/Indicator: TA1535, Metabolic Activation: WHEAT SEEDLING, S-14, Method: STANDARD PLATE): inactive; negative

O=[N+]([O-])C1CCCC1
mutagenic call [7]: inactive; negative
mutagenic call (Test System: AMES SALMONELLA TYPHIMURIUM, Strain/Indicator: TA100, Metabolic Activation: RAT, LIVER, S-9, AROCLOR, Method: PREINCUBATION): active; positive
mutagenic call (Test System: AMES SALMONELLA TYPHIMURIUM, Strain/Indicator: TA102, Metabolic Activation: NONE, Method: PREINCUBATION): inactive; negative
mutagenic call (Test System: AMES SALMONELLA TYPHIMURIUM, Strain/Indicator: TA102, Metabolic Activation: RAT, LIVER, S-9, AROCLOR, Method: PREINCUBATION): inactive; negative
mutagenic call (Test System: UDS RAT HEPATOCYTES, Strain/Indicator: THY INCORP, Metabolic Activation: NONE): active; positive

[O-][N+](=Nc1ccc2c(c1)Cc1ccccc1-2)c1ccc2c(c1)Cc1ccccc1-2
mutagenic call [1]: inactive; negative
mutagenic call [8]: inactive; negative

CCN(C(=S)[S-])c1ccccc1.CCN(C(=S)[S-])c1ccccc1.[Zn+2]
mutagenic call [1]: inactive; negative
mutagenic call [2]: inactive; negative
mutagenic call [3]: inactive; negative
mutagenic call [4]: inactive; negative

Cc1c(N)cnc2c1nc1c(C)cccn12
mutagenic call [1]: inactive; negative
mutagenic call (Test System: AMES SALMONELLA TYPHIMURIUM, Strain/Indicator: TA98, Metabolic Activation: RAT, LIVER, CYTOSOL, AROCLOR 1254, Method: STANDARD PLATE): active; positive
mutagenic call (Test System: AMES SALMONELLA TYPHIMURIUM, Strain/Indicator: TA98, Metabolic Activation: RAT, LIVER, MICROSOMES, AROCLOR 1254, Method: STANDARD PLATE): active; positive
mutagenic call [8]: active; positive

COc1ccc(Cc2nccc3cc(OC)c(OC)cc23)cc1OC
mutagenic call [9]: active; positive

Clc1ccccn1
mutagenic call (Test System: AMES SALMONELLA TYPHIMURIUM, Strain/Indicator: TA97, Metabolic Activation: NONE, Method: STANDARD PLATE): inactive; negative
mutagenic call (Test System: AMES SALMONELLA TYPHIMURIUM, Strain/Indicator: TA97, Metabolic Activation: RAT, LIVER, S-9, AROCLOR 1254, Method: STANDARD PLATE): active; positive
mutagenic call [1]: inactive; negative
mutagenic call [8]: active; positive
mutagenic call [3]: inactive; negative
mutagenic call [10]: active; positive
mutagenic call [5]: inactive; negative
mutagenic call (Test System: AMES SALMONELLA TYPHIMURIUM, Strain/Indicator: TA102, Metabolic Activation: RAT, LIVER, S-9, AROCLOR 1254, Method: STANDARD PLATE): active; positive
mutagenic call (Test System: MOUSE LYMPHOMA, Strain/Indicator: L5178Y (TK+/TK-), Metabolic Activation: NONE): active; positive
mutagenic call (Test System: MOUSE LYMPHOMA, Strain/Indicator: L5178Y (TK+/TK-), Metabolic Activation: RAT, LIVER, S-9, AROCLOR 1254): active; positive

O=C(CBr)c1ccc(Br)cc1
mutagenic call [11]: inactive; negative
mutagenic call (Test System: AMES SALMONELLA TYPHIMURIUM, Strain/Indicator: TA98, Metabolic Activation: RAT, LIVER, S-9, PCB, Method: PREINCUBATION): inactive; negative
mutagenic call [7]: inactive; negative
mutagenic call (Test System: AMES SALMONELLA TYPHIMURIUM, Strain/Indicator: TA100, Metabolic Activation: RAT, LIVER, S-9, PCB, Method: PREINCUBATION): inactive; negative
mutagenic call (Test System: E. COLI, Strain/Indicator: WP2 UVRA, Metabolic Activation: NONE, Method: PREINCUBATION): inactive; negative

COc1ccc2c(c1)C(=O)c1nccc3cc4c(c-2c13)OCO4
mutagenic call (Test System: AMES SALMONELLA TYPHIMURIUM, Strain/Indicator: TA98, Metabolic Activation: RAT, LIVER, S-9, PHENOBARBITAL AND BETA-NAPHTHOFLAVONE, Method: PREINCUBATION): active; positive
mutagenic call [9]: active; positive

N=C1CCC(=N)c2c1c(O)c1ccccc1c2O
mutagenic call [1]: inactive; negative
mutagenic call [3]: inactive; negative
mutagenic call [10]: inactive; negative
mutagenic call [6]: inactive; negative
mutagenic call (Test System: AMES SALMONELLA TYPHIMURIUM, Strain/Indicator: TA1535, Metabolic Activation: RAT, LIVER, S-9, AROCLOR 1254, Method: STANDARD PLATE): inactive; negative
mutagenic call (Test System: AMES SALMONELLA TYPHIMURIUM, Strain/Indicator: TA1537, Metabolic Activation: NONE, Method: STANDARD PLATE): active; positive
mutagenic call (Test System: AMES SALMONELLA TYPHIMURIUM, Strain/Indicator: TA1537, Metabolic Activation: RAT, LIVER, S-9, AROCLOR 1254, Method: STANDARD PLATE): active; positive
mutagenic call (Test System: AMES SALMONELLA TYPHIMURIUM, Strain/Indicator: TA1538, Metabolic Activation: NONE, Method: STANDARD PLATE): inactive; negative
mutagenic call [12]: inactive; negative

Cc1cc(-c2ccc(N=Nc3c(N)c(C)cc(S(=O)(=O)O)c3N)c(C)c2)ccc1N=Nc1ccc(O)c(C(=O)O)c1
mutagenic call [12]: active; positive

O=[N+]([O-])c1cccc2nc3cccc([N+](=O)[O-])c3nc12
mutagenic call (Test System: AMES SALMONELLA TYPHIMURIUM, Strain/Indicator: TA98(NR), Metabolic Activation: NONE, Method: PREINCUBATION): active; positive
mutagenic call [11]: active; positive
